{"source": "patent US20230210831A1", "about": "“CHRONIC KIDNEY DISEASE TREATMENT OR PREVENTION METHOD” (Japan Tobacco Inc., priority 2019, published 2023)", "assay_type_in_all_cases": "cell-based", "key": {"[1]": {"system": "Salmonella typhimurium TA100", "test": "Ames test (reverse mutation test), TA100", "procedure": "(§1) The solvent used herein was dimethyl sulfoxide (DMSO, 100 µL/plate).\n(§2) The mixtures were preincubated at 37° C. for 20 minutes while shaking. […] Two plates per treatment were used."}, "[2]": {"system": "Salmonella typhimurium TA1535", "test": "Ames test (reverse mutation test), TA1535", "procedure": "as §1, §2"}, "[3]": {"system": "Escherichia coli WP2uvrA", "test": "Ames test (reverse mutation test), WP2uvrA", "settings": "WP2uvrA", "procedure": "as §1, §2"}, "[4]": {"system": "Salmonella typhimurium TA1537", "test": "Ames test (reverse mutation test), TA1537", "procedure": "as §1, §2"}, "[5]": {"system": "Salmonella typhimurium (TA98, TA1537, TA100, and TA1535) and Escherichia coli (WP2uvrA)", "test": "Ames test (reverse mutation test), overall conclusion over all tester strains", "settings": "all bacterial tester strains, with and/or without S9 mix", "procedure": "as §1, §2\nDetails are explained as follows."}, "[6]": {"system": "Salmonella typhimurium TA98", "test": "Ames test (reverse mutation test), TA98", "procedure": "as §1, §2"}}, "note": "“And” between values parts separate entries of the source, which are not always exact repeats. Identical values can stand only once.", "data": [{"smiles": "CC(C)(C)Oc1cc(F)cc(-c2cc(N)nn2C(F)(F)F)c1", "note": "[Metabolite 1]", "values": [{"measurement": "Number of revertant colonies", "setting": "[1]; TA100, +S9 mix, 2.3 µg/plate", "result": 120}, {"measurement": "Number of revertant colonies", "setting": "[1]; TA100, +S9 mix, 6.9 µg/plate", "result": 119}, {"measurement": "Number of revertant colonies", "setting": "[1]; TA100, +S9 mix, 21 µg/plate", "result": 117}, {"measurement": "Number of revertant colonies", "setting": "[1]; TA100, +S9 mix, 62 µg/plate", "result": 104}, {"measurement": "Number of revertant colonies", "setting": "[1]; TA100, +S9 mix, 185 µg/plate", "result": 78}, {"measurement": "Number of revertant colonies", "setting": "[1]; TA100, +S9 mix, 556 µg/plate", "result": 59}, {"measurement": "Number of revertant colonies", "setting": "[1]; TA100, +S9 mix, 1667 µg/plate", "result": 50}, {"measurement": "Number of revertant colonies", "setting": "[1]; TA100, +S9 mix, 5000 µg/plate", "result": 52}, {"measurement": "Number of revertant colonies", "setting": "[1]; TA100, -S9 mix, 2.3 µg/plate", "result": 99}, {"measurement": "Number of revertant colonies", "setting": "[1]; TA100, -S9 mix, 6.9 µg/plate", "result": 113}, {"measurement": "Number of revertant colonies", "setting": "[1]; TA100, -S9 mix, 21 µg/plate", "result": 124}, {"measurement": "Number of revertant colonies", "setting": "[1]; TA100, -S9 mix, 62 µg/plate", "result": 88}, {"measurement": "Number of revertant colonies", "setting": "[1]; TA100, -S9 mix, 185 µg/plate", "result": 38}, {"measurement": "Number of revertant colonies", "setting": "[1]; TA100, -S9 mix, 556 µg/plate", "result": 0}, {"measurement": "Number of revertant colonies", "setting": "[1]; TA100, -S9 mix, 1667 µg/plate", "result": 0}, {"measurement": "Number of revertant colonies", "setting": "[1]; TA100, -S9 mix, 5000 µg/plate", "result": 0}, {"measurement": "Number of revertant colonies", "setting": "[2]; TA1535, +S9 mix, 1667 µg/plate", "result": 4}, {"measurement": "Number of revertant colonies", "setting": "[2]; TA1535, -S9 mix, 62 µg/plate", "result": 8}, {"measurement": "Number of revertant colonies", "setting": "[2]; TA1535, -S9 mix, 185 µg/plate", "result": 0}, {"measurement": "Number of revertant colonies", "setting": "[2]; TA1535, -S9 mix, 556 µg/plate", "result": 0}, {"measurement": "Number of revertant colonies", "setting": "[2]; TA1535, -S9 mix, 1667 µg/plate", "result": 0}, {"measurement": "Number of revertant colonies", "setting": "[3]; +S9 mix, 2.3 µg/plate", "result": 31}, {"measurement": "Number of revertant colonies", "setting": "[3]; +S9 mix, 6.9 µg/plate", "result": 31}, {"measurement": "Number of revertant colonies", "setting": "[3]; +S9 mix, 12 µg/plate", "result": 28}, {"measurement": "Number of revertant colonies", "setting": "[3]; +S9 mix, 21 µg/plate", "result": "32 and 25"}, {"measurement": "Number of revertant colonies", "setting": "[3]; +S9 mix, 36 µg/plate", "result": 34}, {"measurement": "Number of revertant colonies", "setting": "[3]; +S9 mix, 62 µg/plate", "result": "40 and 35"}, {"measurement": "Number of revertant colonies", "setting": "[3]; +S9 mix, 185 µg/plate", "result": "16 and 9"}, {"measurement": "Number of revertant colonies", "setting": "[3]; +S9 mix, 556 µg/plate", "result": 18}, {"measurement": "Number of revertant colonies", "setting": "[3]; +S9 mix, 1667 µg/plate", "result": 9}, {"measurement": "Number of revertant colonies", "setting": "[3]; +S9 mix, 5000 µg/plate", "result": 0}, {"measurement": "Number of revertant colonies", "setting": "[3]; -S9 mix, 2.3 µg/plate", "result": 32}, {"measurement": "Number of revertant colonies", "setting": "[3]; -S9 mix, 6.9 µg/plate", "result": 27}, {"measurement": "Number of revertant colonies", "setting": "[3]; -S9 mix, 21 µg/plate", "result": 31}, {"measurement": "Number of revertant colonies", "setting": "[3]; -S9 mix, 62 µg/plate", "result": 24}, {"measurement": "Number of revertant colonies", "setting": "[3]; -S9 mix, 185 µg/plate", "result": 15}, {"measurement": "Number of revertant colonies", "setting": "[3]; -S9 mix, 556 µg/plate", "result": 8}, {"measurement": "Number of revertant colonies", "setting": "[3]; -S9 mix, 1667 µg/plate", "result": 5}, {"measurement": "Number of revertant colonies", "setting": "[3]; -S9 mix, 5000 µg/plate", "result": 0}, {"measurement": "Number of revertant colonies", "setting": "[4]; TA1537, +S9 mix, 2.3 µg/plate", "result": 11}, {"measurement": "Number of revertant colonies", "setting": "[4]; TA1537, +S9 mix, 6.9 µg/plate", "result": 10}, {"measurement": "Number of revertant colonies", "setting": "[4]; TA1537, +S9 mix, 21 µg/plate", "result": 9}, {"measurement": "Number of revertant colonies", "setting": "[4]; TA1537, +S9 mix, 62 µg/plate", "result": 6}, {"measurement": "Number of revertant colonies", "setting": "[4]; TA1537, +S9 mix, 185 µg/plate", "result": 2}, {"measurement": "Number of revertant colonies", "setting": "[4]; TA1537, +S9 mix, 556 µg/plate", "result": 0}, {"measurement": "Number of revertant colonies", "setting": "[4]; TA1537, +S9 mix, 1667 µg/plate", "result": 0}, {"measurement": "Number of revertant colonies", "setting": "[4]; TA1537, +S9 mix, 5000 µg/plate", "result": 0}, {"measurement": "Number of revertant colonies", "setting": "[4]; TA1537, -S9 mix, 2.3 µg/plate", "result": 7}, {"measurement": "Number of revertant colonies", "setting": "[4]; TA1537, -S9 mix, 6.9 µg/plate", "result": 10}, {"measurement": "Number of revertant colonies", "setting": "[4]; TA1537, -S9 mix, 21 µg/plate", "result": 9}, {"measurement": "Number of revertant colonies", "setting": "[4]; TA1537, -S9 mix, 62 µg/plate", "result": 9}, {"measurement": "Number of revertant colonies", "setting": "[4]; TA1537, -S9 mix, 185 µg/plate", "result": 0}, {"measurement": "Number of revertant colonies", "setting": "[4]; TA1537, -S9 mix, 556 µg/plate", "result": 0}, {"measurement": "Number of revertant colonies", "setting": "[4]; TA1537, -S9 mix, 1667 µg/plate", "result": 0}, {"measurement": "Number of revertant colonies", "setting": "[4]; TA1537, -S9 mix, 5000 µg/plate", "result": 0}, {"measurement": "potential to induce reverse mutations", "setting": "[5]", "result": "did not show potential to induce reverse mutations"}, {"measurement": "Number of revertant colonies", "setting": "[6]; TA98, +S9 mix, 2.3 µg/plate", "result": 35}, {"measurement": "Number of revertant colonies", "setting": "[6]; TA98, +S9 mix, 6.9 µg/plate", "result": 31}, {"measurement": "Number of revertant colonies", "setting": "[6]; TA98, +S9 mix, 21 µg/plate", "result": 35}, {"measurement": "Number of revertant colonies", "setting": "[6]; TA98, +S9 mix, 62 µg/plate", "result": 28}, {"measurement": "Number of revertant colonies", "setting": "[6]; TA98, +S9 mix, 185 µg/plate", "result": 16}, {"measurement": "Number of revertant colonies", "setting": "[6]; TA98, +S9 mix, 556 µg/plate", "result": 15}, {"measurement": "Number of revertant colonies", "setting": "[6]; TA98, +S9 mix, 1667 µg/plate", "result": 13}, {"measurement": "Number of revertant colonies", "setting": "[6]; TA98, +S9 mix, 5000 µg/plate", "result": 13}, {"measurement": "Number of revertant colonies", "setting": "[6]; TA98, -S9 mix, 2.3 µg/plate", "result": 14}, {"measurement": "Number of revertant colonies", "setting": "[6]; TA98, -S9 mix, 6.9 µg/plate", "result": 16}, {"measurement": "Number of revertant colonies", "setting": "[6]; TA98, -S9 mix, 21 µg/plate", "result": 14}, {"measurement": "Number of revertant colonies", "setting": "[6]; TA98, -S9 mix, 62 µg/plate", "result": 21}, {"measurement": "Number of revertant colonies", "setting": "[6]; TA98, -S9 mix, 185 µg/plate", "result": 9}, {"measurement": "Number of revertant colonies", "setting": "[6]; TA98, -S9 mix, 556 µg/plate", "result": 0}, {"measurement": "Number of revertant colonies", "setting": "[6]; TA98, -S9 mix, 1667 µg/plate", "result": 0}, {"measurement": "Number of revertant colonies", "setting": "[6]; TA98, -S9 mix, 5000 µg/plate", "result": 0}]}]}
